Experimental findings from patent EP4635958A1, “PYRIMIDINE-CONTAINING POLYCYCLIC DERIVATIVE INHIBITOR, AND PREPARATION METHOD THEREFOR AND USE THEREOF” (Shanghai Hansoh Biomedical Co., Ltd., priority 2022, dated 2024) are described below.

The term Cmax denotes the maximum level reached in the sampled fluid or tissue. A word on the Tmax: it is the time from dosing to the highest level.

Data set [1] in a line: Pharmacokinetic determination in rats (IV and PO, plasma, LCMS/MS). The class given is in vivo, SD rats. The method in brief:
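Male SD rats (3/group), fasted overnight, dosed PO at 30 mg/kg in 10% Captisol/50 mM citrate pH 5.0 or IV at 1 mg/kg in 5% DMSO/10% Solutol HS15/85% PBS. Jugular plasma (EDTA-2K) sampled predose to 24 h; analysed by LCMS/MS.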

In data set [2] the test system is human pancreatic cancer cell line (HPAC). Nature of the data set: Antitumor efficacy in mouse transplanted tumor model of human pancreatic cancer cell line (HPAC). The settings on record: HPAC xenograft, 100mpk, PO*BID; for Tumor volume (mm^3, Mean ± SD) Day 0: Day 0 (baseline). The class given is in vivo, mice (BALB/c nude). The text has this: 8-10 week old female conventional immunodeficient mice (BALB/c nude) with a body weight of 18 g-22 g were used as experimental animals, and a transplanted tumor model of human pancreatic cancer cell line (HPAC) was used to conduct in vivo efficacy experiments to test the anti-tumor results of the example compounds after gavage administration.
The example compounds of the present invention, made in house.
A certain amount of the example compound was weighed, and an appropriate amount of 10% vehicle (Solutol HS15) was added. The mixture was stirred on a magnetic stirrer for 0.5 h to formulate a homogeneous suspension at the desired concentration.
Human pancreatic cancer cell line (HPAC) was derived from COBIOER BIOSCIENCES CO., LTD, cultured on DMEM/F12 medium (Gibco, 11330-032) supplemented with 10% fetal calf serum (Gibco, 10091-148), 1×Insulin (51500-056, Gibco) and 10 ng/ml of EGF (PHG0311, Gibco) and observed under a microscope (Thermo Fisher, 311). The cells were routinely passaged when the cells reached 80%-90% confluence in the culture flask. The passaged cells were cultured in a 37°C, 5% CO2 incubator (Thermo Fisher, 311).
Under aseptic conditions, human pancreatic cancer cells (HPAC) in the logarithmic growth phase were harvested using 0.25% trypsin-EDTA (Gibco, 25200-056), washed and resuspended with phosphate buffer. The cell suspension was mixed with Matrigel (Corning, 356234) at a 1 : 1 ratio (v/v) and implanted subcutaneously into the right anterior dorsal region of immunodeficient mice (BALB/c nude). Each mouse was inoculated with 3*10^6 cells in a volume of 100 microliters (µL). After inoculation, when the tumor volume reached 100-200 mm^3, the mice would be evenly randomized into 5 groups based on the tumor size, with 5 mice per group, for in vivo efficacy experiments. The negative control group was the vehicle group.
Mode of administration: The example compounds were administered orally.
Twice a week, the long and short diameters of the tumor were measured using a vernier caliper, and the tumor volume (mm^3) was calculated using the formula: V = 0.5*D*d*d, where D and d are the long and short diameters of the tumor, respectively. The anti-tumor efficacy was determined by dividing the average increase in tumor volume of compound-treated animals by the average increase in tumor volume of untreated animals. The calculation formula for tumor inhibition rate was: When there is no tumor regression, TGI(%) = 100-[(Vt-V0) administration group/(Vt-V0) vehicle control group]*100%. When tumor regression occurs, TGI(%) = [1-(Vt-V0) administration group/V0 vehicle control group]*100%. All animals were euthanized after the experiment.
For orientation: Xenograft models place foreign cells or tissue in a host animal.

The mark [3] stands for this setting: rat, in vivo, PO, 30 mg/kg, male SD rats, overnight fasting, plasma, read-out: AUCo-∞.
[4] abbreviates: rat, in vivo, PO, 30 mg/kg, male SD rats, overnight fasting, plasma, read-out: Cmax.
[5] abbreviates: rat, in vivo, PO, 30 mg/kg, male SD rats, overnight fasting, plasma, read-out: T1/2 (converted).
The mark [6] stands for this setting: rat, in vivo, PO, 30 mg/kg, male SD rats, overnight fasting, plasma, read-out: Tmax.
The mark [7] stands for this setting: PO 30 mg/kg vs IV 1 mg/kg, male SD rats.
Where [8] appears, read: rat, in vivo, IV, 1 mg/kg, male SD rats, overnight fasting, plasma, read-out: AUCo-∞.
Setting [9] is: rat, in vivo, IV, 1 mg/kg, male SD rats, overnight fasting, plasma, read-out: C0.
The mark [10] stands for this setting: rat, in vivo, IV, 1 mg/kg, male SD rats, overnight fasting, plasma, read-out: CL.
[11] abbreviates: rat, in vivo, IV, 1 mg/kg, male SD rats, overnight fasting, plasma, read-out: T1/2 (converted).

Structures can show the parent of a compound that is named as a salt. Where two headings read alike, the source gives them in different places.

As to `CON=C1CCN(CC2(COc3nc4c5c(nc(-c6cc(N)cc(Cl)c6C(F)(F)F)c(F)c5n3)O[C@@H](C)[C@@H]3[C@@H]5CC[C@H](CN43)N5)CC2)CC1` [Example 337, 1-((1-((((5S,5aS,6S,9R)-2-(5-amino-3-chloro-2-(trifluoromethyl)phenyl)-1-fluoro-5-methyl-5a,6,7,8,9,10-hexahydro-5H-4-oxa-3,10a,11,13,14-pentaaza-6,9-methylnaphtho[1,8-ab]heptene-12-yl)oxy)methyl)cyclopropyl)methyl)piperidin-4-one O-methyloxime], the AUC(0-inf) in data set [1] (setting [3]) came to 374 ng·h/mL. In addition, the Cmax in data set [1] (setting [4]) is 41 ng/mL. In data set [1] (setting [5]), the half-life was 4.2 h. Further, the Tmax in data set [1] (setting [6]) is 4 h.
For `[2H]C([2H])(Oc1nc2c3c(nc(-c4cc(O)cc5ccc(F)c(C#C)c45)c(F)c3n1)O[C@@H](C)[C@@H]1[C@@H]3CC[C@H](CN21)N3)C1(C([2H])([2H])N2CCC(=CF)CC2)CC1` [Example 291, 5-ethynyl-6-fluoro-4-((5S,5aS,6S,9R)-1-fluoro-12-((1-((4-(fluoromethylene)piperidin-1-yl)methyl-d2)cyclopropyl)methoxy-d2)-5-methyl-5a,6,7,8,9,10-hexahydro-5H-4-oxa-3,10a,11,13,14-pentaaza-6,9-methylnaphtho[1,8-ab]hept-2-yl)naphthalen-2-ol], in data set [2] (Table 11), the “Tumor volume (mm^3, Mean ± SD) Day 0” value stood at 210 mm^3; the “TGI(%) Day 21” value came out at 127.51%; the “Tumor volume (mm^3, Mean ± SD) Day 21” value amounted to 153 mm^3; the “ΔT/ΔC(%) Day 21” value came out at 13.29%.
As for `C#Cc1c(F)ccc2cc(O)cc(-c3nc4c5c(nc(OCC6(CN7CCC(=C(F)F)CC7)CC6)nc5c3F)N3C[C@H]5CC[C@H](N5)[C@H]3CO4)c12` [Example 1-1, 4-((5aS,6S,9R)-12-((1-((4-(difluoromethylene)piperidin-1-yl)methyl)cyclopropyl)methoxy)-1-fluoro-5a,6,7,8,9,10-hexahydro-5H-4-oxa-3,10a,11,13,14-pentaaza-6,9-methylenenaphtho[1,8-ab]heptalene-2-yl)-5-ethynyl-6-fluoronaphthalen-2-ol], the F in data set [1] (setting [7]) came out at 2.1%. Moreover, the AUC(0-inf) is 2960 ng·h/mL in data set [1] (setting [8]) and 1890 ng·h/mL in data set [1] (setting [3]). Also, the C0 in data set [1] (setting [9]) came out at 1770 ng/mL. In data set [1] (setting [10]), the clearance amounted to 5.6 mL/min/kg. Besides, the half-life in data set [1] (setting [11]) is 16.3 h; in data set [1] (setting [5]), 5.1 h. Further, the Cmax in data set [1] (setting [4]) turned out to be 254 ng/mL. For the same molecule, in data set [1] (setting [6]), the Tmax amounted to 6 h.
Consider `[2H]C([2H])([2H])[C@@H]1Oc2nc(-c3cc(O)cc4ccc(F)c(C#C)c34)c(F)c3nc(OCC4(CN5CCC(=C(F)F)CC5)CC4)nc(c23)N2C[C@H]3CC[C@H](N3)[C@@H]12` [Example 161, 4-((5S,5aS,6S,9R)-12-((1-((4-(difluoromethylene)piperidin-1-yl)methyl)cyclopropyl)methoxy)-1-fluoro-5-(methyl-d3)-5a,6,7,8,9,10-hexahydro-5H-4-oxa-3,10a,11,13,14-pentaaza-6,9-methylnaphtho[1,8-ab]hept-2-yl)-5-ethynyl-6-fluoronaphthalen-2-ol], for which the F in data set [1] (rat, in vivo) was found to be 7%. Further, in data set [1] (rat, in vivo, iv, 1 mg/kg), the AUC(0-inf) is 1420 ng·h/mL, the C0 was 704 ng/mL, the clearance was found to be 11.7 mL/min/kg and the half-life is 8.4 h. Moreover, in data set [1] (rat, in vivo, po, 30 mg/kg), the AUC(0-inf) was 2890 ng·h/mL, the Cmax was determined as 254 ng/mL, the time of peak concentration (Tmax) was 6 h and the half-life was 6.9 h. For the same molecule, in data set [2] (Table 11), the “Tumor volume (mm^3, Mean ± SD) Day 0” value is reported as 209 mm^3; the “TGI(%) Day 21” value came to 137.45%; the “Tumor volume (mm^3, Mean ± SD) Day 21” value was 131 mm^3; the “ΔT/ΔC(%) Day 21” value is given as 11.47%.
In data set [1] (setting [7]), `[2H]C([2H])([2H])[C@@H]1Oc2nc(-c3cc(N)cc(Cl)c3C(F)(F)F)c(F)c3nc(OCC4(CN5CCC(=NOC)CC5)CC4)nc(c23)N2C[C@H]3CC[C@H](N3)[C@@H]12` [Example 339] came in with an F of 6.6%. Also, the AUC(0-inf) in data set [1] (setting [8]) stood at 98 ng·h/mL. The C0 in data set [1] (setting [9]) was found to be 174 ng/mL. For the same molecule, the clearance in data set [1] (setting [10]) was 170 mL/min/kg. Also, the half-life in data set [1] (setting [11]) is 2.6 h. Further, the AUC(0-inf) in data set [1] (setting [3]) was found to be 220 ng·h/mL. The maximum concentration (Cmax) in data set [1] (setting [4]) turned out to be 43 ng/mL. In addition, the half-life in data set [1] (setting [5]) was 3 h. Moreover, the Tmax in data set [1] (setting [6]) came out at 2 h. Also, in data set [2] (Table 12), the “Tumor volume (mm^3, Mean ± SD) Day 0” value worked out at 469 mm^3; the “TGI(%) Day 14” value stood at 160.47%; the “ΔT/ΔC(%) Day 14” value is on record as 19.36%; the “Tumor volume (mm^3, Mean ± SD) Day 21” value is on record as 185 mm^3.
As to `[2H]C([2H])([2H])[C@@H]1Oc2nc(-c3cc(O)cc4ccc(F)c(C#C)c34)c(F)c3nc(OCC4(CN5CCC(=CF)CC5)CC4)nc(c23)N2C[C@H]3CC[C@H](N3)[C@@H]12` [Example 164], the AUC(0-inf) turned out to be 774 ng·h/mL in data set [1] (setting [8]) and 1580 ng·h/mL in data set [1] (setting [3]). In addition, the C0 in data set [1] (setting [9]) is 838 ng/mL. Moreover, the clearance in data set [1] (setting [10]) amounted to 21.5 mL/min/kg. Besides, the half-life in data set [1] (setting [11]) was 17.6 h; in data set [1] (setting [5]), 14 h. Moreover, the peak concentration (Cmax) in data set [1] (setting [4]) amounted to 135 ng/mL. Also, the Tmax in data set [1] (setting [6]) was 2 h.
`C#Cc1c(F)ccc2cc(O)cc(-c3nc4c5c(nc(OCC6(CN7CCC(=NOC)CC7)CC6)nc5c3F)N3C[C@H]5CC[C@H](N5)[C@H]3[C@H](C)O4)c12` [Example 35-1, 1-((1-((((5S,5aS,6S,9R)-2-(8-ethynyl-7-fluoro-3-hydroxynaphthalen-1-yl)-1-fluoro-5-methyl-5a,6,7,8,9,10-hexahydro-5H-4-oxa-3,10a,11,13,14-pentaaza-6,9-methylenenaphtho[1,8-ab]heptalen-12-yl)oxo)methyl)cyclopropyl)methyl)piperidin-4-one O-methyloxime formate] had a F in data set [1] (setting [7]) of 3.5%. The AUC(0-inf) in data set [1] (setting [8]) turned out to be 571 ng·h/mL. The C0 in data set [1] (setting [9]) turned out to be 2810 ng/mL. Moreover, the clearance in data set [1] (setting [10]) was found to be 29.2 mL/min/kg. For the same molecule, the half-life in data set [1] (setting [11]) is 5.7 h. The AUC(0-inf) in data set [1] (setting [3]) came out at 601 ng·h/mL. In data set [1] (setting [4]), the Cmax was 108 ng/mL. Further, in data set [1] (setting [5]), the half-life is 3.4 h. Besides, the time to peak (Tmax) in data set [1] (setting [6]) was found to be 2 h. In data set [2] (Table 12), the “Tumor volume (mm^3, Mean ± SD) Day 0” value stood at 469 mm^3; the “TGI(%) Day 14” value worked out at 76.39%; the “ΔT/ΔC(%) Day 14” value is reported as 61.00%; the “Tumor volume (mm^3, Mean ± SD) Day 21” value came out at 585 mm^3.
Take `C#Cc1c(F)ccc2cc(O)cc(-c3nc4c5c(nc(OCC6(CN7CCC(=C(F)F)CC7)CC6)nc5c3F)N3C[C@H]5CC[C@H](N5)[C@H]3[C@H](C)O4)c12` [Example 19-1, 4-((5S,5aS,6S,9R)-12-((1-((4-(difluoromethylene)piperidin-1-yl)methyl)cyclopropyl)methoxy)-1-fluoro-5-methyl-5a,6,7,8,9,10-hexahydro-5H-4-oxa-3,10a,11,13,14-pentaaza-6,9-methylnaphtho[1,8-ab]hept-2-yl)-5-ethynyl-6-fluoronaphthalene-2-ol]: the F in data set [1] (setting [7]) is listed as 5.4%. The AUC(0-inf) in data set [1] (setting [8]) worked out at 1900 ng·h/mL; in data set [1] (setting [3]) it was 3080 ng·h/mL. Also, in data set [1] (setting [9]), the C0 amounted to 1720 ng/mL. Moreover, the clearance in data set [1] (setting [10]) is 8.8 mL/min/kg. Also, the half-life in data set [1] (setting [11]) was 10.1 h; in data set [1] (setting [5]), 8.2 h. Besides, the highest concentration (Cmax) in data set [1] (setting [4]) is 329 ng/mL. The time to peak (Tmax) in data set [1] (setting [6]) was found to be 2 h.
